Data set [1] can be described thus: Surface sphingosine in mouse nasal mucosa after intranasal application, in situ sphingosine kinase assay. The note with it: wild-type mice; 10 μL of 10 μM or 100 μM into the nostrils; 1, 4 and 8 hrs; without washing. Type of data set: in vivo. How it is done: Sphingosine (SPH) was applied into the nose of wild-type mice and the concentration of sphingosine on the epithelial cell surface was determined after 1, 4 and 8 hrs (a.i.: after injection of sphingosine). To this end, 10 μL of a 10 μM or a 100 μM sphingosine solution was applied into the nostrils of wild-type mice. Controls received the solvent, i.e. octylglucopyranoside at the same concentration used when sphingosine was applied, or were left untreated. Mice were slightly and very briefly anesthetized with ether. For the intranasal application we used a blunt-end 30 g needle that was covered with a thin plastic film. The blunt-ended needle was inserted into the nostrils approximately 2 mm. Mice were sacrificed after the indicated time, the nasal bone was removed, placed on a 30° C. pre-warmed plastic plate and an area of 2 mm×2 mm was immediately incubated with 0.001 units of sphingosine kinase 1 (#6068-SK-010, R&D) in 4 μl of 150 mM sodium acetate (pH 7.4), 1 μM ATP, and 10 μCi [^32P]γATP/sample. Controls were incubated with the same buffer without sphingosine kinase or were left untreated. […] The TLC plates were analyzed with a phosphoimager. Surface sphingosine levels were determined with a standard curve of C18-sphingosine. […]

Data set [2] deals with rhinovirus 2 (RV2). As to the kind of experiment: RV2 infection of freshly isolated human epithelial cells, Hela cytotoxicity readout. Type of data set: cell-based. The note with it: 10 μM or 20 μM, 24 hrs. On the procedure:
10^4 PFU of Rhinovirus 2 or 14 (RV2, RV14) were incubated with freshly isolated human epithelial cells for 24 hrs in the presence of 10 μM or 20 μM sphingosine (SPH) or the corresponding concentration of the solvent octylglucopyranoside (OGP), the cells were pelleted, supernatants completely removed, the cell pellets resuspended in PBS and added to Hela cells. Cells were incubated for 3 days and cytotoxicity as measurement for virus titers was determined. Shown is the mean±SD, n=4, *p<0.001 ANOVA.

Data set [3] deals with T1, recombinant ACE2 (Homo sapiens, UniProt Q9BYF1).
T1 construct: purchased Abcam ab273687
T1 sequence (Q9BYF1 18-805): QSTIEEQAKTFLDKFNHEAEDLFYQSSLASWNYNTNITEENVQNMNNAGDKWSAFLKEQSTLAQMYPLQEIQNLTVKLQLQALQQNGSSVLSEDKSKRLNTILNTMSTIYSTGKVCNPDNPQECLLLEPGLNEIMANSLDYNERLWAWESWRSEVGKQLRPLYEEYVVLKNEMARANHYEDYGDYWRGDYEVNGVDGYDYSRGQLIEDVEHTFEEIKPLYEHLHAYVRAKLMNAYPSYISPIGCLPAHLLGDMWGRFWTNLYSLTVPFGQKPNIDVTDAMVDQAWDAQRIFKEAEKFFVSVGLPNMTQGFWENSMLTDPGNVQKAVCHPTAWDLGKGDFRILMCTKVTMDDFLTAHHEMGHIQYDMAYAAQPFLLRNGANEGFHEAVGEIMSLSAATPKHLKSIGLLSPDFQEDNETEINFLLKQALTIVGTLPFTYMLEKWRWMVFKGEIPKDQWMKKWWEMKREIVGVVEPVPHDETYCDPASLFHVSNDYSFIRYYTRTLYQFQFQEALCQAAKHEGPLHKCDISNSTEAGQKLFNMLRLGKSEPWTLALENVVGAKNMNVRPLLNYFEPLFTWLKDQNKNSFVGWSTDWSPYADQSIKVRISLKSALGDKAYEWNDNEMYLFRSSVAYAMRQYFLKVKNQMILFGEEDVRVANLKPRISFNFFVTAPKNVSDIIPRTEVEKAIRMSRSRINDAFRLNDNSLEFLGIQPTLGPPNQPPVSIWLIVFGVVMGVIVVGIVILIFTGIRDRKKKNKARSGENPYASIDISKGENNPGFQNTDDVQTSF
Put plainly: Binding of lipids to immobilized recombinant ACE2. The note with it: sphingosine at 2 μM.

In data set [4] the target is pp-VSV-SARS-CoV-2 / recombinant ACE2 (Homo sapiens, UniProt Q9BYF1). Put plainly: Binding of pp-VSV-SARS-CoV-2 to immobilized recombinant ACE2, Vero infection with supernatant. As to conditions: 1 or 2 μM sphingosine; immobilized Fc-ACE2.
Chain of pp-VSV-SARS-CoV-2 / recombinant ACE2 (Q9BYF1 18-740): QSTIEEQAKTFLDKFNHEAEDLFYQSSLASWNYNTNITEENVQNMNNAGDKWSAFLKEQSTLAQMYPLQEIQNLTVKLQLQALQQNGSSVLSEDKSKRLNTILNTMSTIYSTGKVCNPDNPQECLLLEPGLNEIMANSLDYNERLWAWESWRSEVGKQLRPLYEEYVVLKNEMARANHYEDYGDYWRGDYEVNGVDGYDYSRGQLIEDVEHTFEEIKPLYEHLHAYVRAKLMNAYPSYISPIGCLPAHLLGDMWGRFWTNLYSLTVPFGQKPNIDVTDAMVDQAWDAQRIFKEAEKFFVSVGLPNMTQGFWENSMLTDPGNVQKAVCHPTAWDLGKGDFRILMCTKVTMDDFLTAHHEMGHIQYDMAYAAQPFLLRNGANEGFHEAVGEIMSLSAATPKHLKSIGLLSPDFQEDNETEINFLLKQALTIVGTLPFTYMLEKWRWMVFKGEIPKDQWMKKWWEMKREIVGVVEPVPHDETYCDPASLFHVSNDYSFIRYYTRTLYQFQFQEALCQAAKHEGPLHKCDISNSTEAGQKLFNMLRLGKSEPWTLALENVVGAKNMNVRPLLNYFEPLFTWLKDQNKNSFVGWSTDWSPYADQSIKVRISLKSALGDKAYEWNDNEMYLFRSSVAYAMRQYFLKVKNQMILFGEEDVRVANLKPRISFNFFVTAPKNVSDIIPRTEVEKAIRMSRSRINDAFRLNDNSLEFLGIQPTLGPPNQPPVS
Data set [5] has as its system pp-VSV-SARS-CoV-2. As to the kind of experiment: Adhesion of pp-VSV-SARS-CoV-2 on Vero cells, flow cytometry with anti-spike S1. As to conditions: 20 minutes infection in presence of lipid. Type of data set: cell-based. (A flow cytometer gives signals particle by particle.)
Data set [6] deals with human nasal epithelial cells. Put plainly: Toxicity on human nasal epithelial cells. The note with it: as per the Vero cell studies.

Entries after “also recorded” stand apart in the source; their conditions may differ.

Take `CCCCCCCCCCCCC/C=C/[C@@H](O)[C@@H](N)CO` [sphingosine, (2S,3R,4E)-2-amino-4-octadecene-1,3-diol]: the “sphingosine concentration on the nasal epithelial cell surface / in the mucosa” value in data set [1] is reported as “dose-dependent accumulation of sphingosine in the mucosa; also recorded: dose dependent increase in the local sphingosine concentration in the nasal mucosa”. For the same compound, in data set [2], the “infection of human epithelial cells by RV2” value is “abrogates infection of human epithelial cells; also recorded: prevents infection of freshly isolated human nasal epithelial cells”. Further, the “binding of lipid to immobilized recombinant ACE2 (beads)” value in data set [3] was “revealed a binding of sphingosine to ACE2; also recorded: selectively couples to beads with bound recombinant ACE2; also recorded: binds the ACE2 receptor”. For the same compound, the “binding of intact pp-VSV-SARS-CoV-2 to recombinant ACE2” value in data set [4] is reported as “abrogated binding of intact pp-VSV-SARS-CoV-2 to recombinant ACE2; also recorded: prevents binding of SARS-CoV-2 spike protein to the ACE2 receptor”. Besides, the “binding of pp-VSV-SARS-CoV-2 to the cell surface” value in data set [5] is on record as “prevented binding of pp-VSV-SARS-CoV-2 to the cell surface”. For the same compound, the “toxic effects on nasal epithelial cells” value in data set [6] is “no toxic effects on nasal epithelial cells; also recorded: without negative effects on the cells”.
